Measured values published in patent US20230104487A1, “11-(4-CHLOROPHENYL)-4-(2,3-DIHYDRO-1H-INDOLE-1-CARBONYL)-3,11-DIMETHYL-5,10,DIOXATRICYCLO[7.4.0.0,2,6,]TRIDECA-1,3,6,8-TETRAEN-13-ONE AND DERIVATIVES AS DESTABILIZER OF CRY1 FOR THE TREATMENT OF CIRCADIAN RHYTHM ASSOCIATED DISEASES AND DISORDERS” (KOC UNIVERSITESI, priority 2019, published 2023).

Biological target: T1, CRY1 (Homo sapiens, UniProt Q16526)
T1 construct: To evaluate the effect of FORMULA I on the endogenous protein and mRNA level of clock genes; endogenous in cells; host or cells: U2-OS
T1 sequence (Q16526 1-586): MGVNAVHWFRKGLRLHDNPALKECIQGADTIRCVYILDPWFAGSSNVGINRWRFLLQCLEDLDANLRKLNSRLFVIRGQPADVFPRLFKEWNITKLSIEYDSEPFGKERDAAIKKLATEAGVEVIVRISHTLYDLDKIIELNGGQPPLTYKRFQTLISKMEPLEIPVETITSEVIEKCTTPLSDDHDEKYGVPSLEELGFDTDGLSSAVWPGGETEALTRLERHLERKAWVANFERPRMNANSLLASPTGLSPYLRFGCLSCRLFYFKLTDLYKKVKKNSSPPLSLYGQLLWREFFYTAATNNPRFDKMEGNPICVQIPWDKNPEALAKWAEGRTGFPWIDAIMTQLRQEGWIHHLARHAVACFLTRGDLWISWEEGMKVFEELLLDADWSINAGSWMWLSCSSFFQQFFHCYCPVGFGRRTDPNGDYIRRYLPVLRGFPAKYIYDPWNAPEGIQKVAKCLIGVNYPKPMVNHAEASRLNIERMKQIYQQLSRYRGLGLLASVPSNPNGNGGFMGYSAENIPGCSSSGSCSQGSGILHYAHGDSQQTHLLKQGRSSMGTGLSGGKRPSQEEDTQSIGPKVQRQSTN
Assay: Protein immunoblot, synchronized U2-OS cells, CRY1
Format: cell-based
Conditions: 10 μM, 80-92 h
Protocol: FIGS. 3A-3G are an illustration of FORMULA I decreased CRY1 level in synchronized U2-OS cells. Confluent U2-OS cells were synchronized by 2 h treatment with dexamethasone ([…]) and medium replaced with fresh medium containing FORMULA I or solvent (DMSO final 0.5%). Cells were harvested at indicated time points. FIGS. 3A-3B show lysed cells were analyzed via protein immunoblot technique. […] CRY levels in DMSO control divided by that of in FORMULA I treated samples were reported (mean±SEM, n=4). FIGS. 3C-3G show cells were subjected to reverse-transcription-quantitative polymerase chain reaction (RT-qPCR). […] Expression level of genes was normalized according to the expression level of that gene at 72ndh. (Data represent the mean±SEM, n=3 with duplicates ***: p<0.001 **: p<0.005, *: p<0.05 versus DMSO control by two-way ANOVA).
Cells were lysed in RIPA buffer (50 mM Tris, 150 mM NaCl, 1% Triton-X, 0.1% SDS) with fresh Protease inhibitor cocktail (PIC). After centrifugation at 13000 rpm for 15 minutes at 4° C., supernatant was used to determine the protein amount using Pierce Protein Assay (Thermo Scientific) according to the manufacturer's instruction. Mice liver samples were homogenized and lysed with Dounce homogenizer and RIPA buffer. […] ECL buffer system (Advansta WesternBright) was used to visualize HRP chemi-luminescence via BioRad ChemiDoc Touch visualizer. […]

Cc1c(C(=O)N2CCc3ccccc32)oc2ccc3c(c12)C(=O)CC(C)(c1ccc(Cl)cc1)O3 (stereo not shown) [FORMULA I, 11-(4-chlorophenyl)-4-(2,3-dihydro-1H-indole-1-carbonyl)-3,11-dimethyl-5,10,dioxatricyclo[7.4.0.0,2,6,]trideca-1,3,6,8-tetraen-13-one]
CRY1 protein level: decreased the protein level of CRY1
